pIC50: −log10 of the molar value.

Consider 20 compounds from patent US7943770B2, “Fused quinoline derivative and use thereof” (Takeda Pharmaceutical Company Limited, priority 2004, dated 2011).

One test addresses T1, hNK2 receptor (Homo sapiens, UniProt P21452).
T1 construct: host or cells: CHO cells
T1 sequence (P21452 1-398): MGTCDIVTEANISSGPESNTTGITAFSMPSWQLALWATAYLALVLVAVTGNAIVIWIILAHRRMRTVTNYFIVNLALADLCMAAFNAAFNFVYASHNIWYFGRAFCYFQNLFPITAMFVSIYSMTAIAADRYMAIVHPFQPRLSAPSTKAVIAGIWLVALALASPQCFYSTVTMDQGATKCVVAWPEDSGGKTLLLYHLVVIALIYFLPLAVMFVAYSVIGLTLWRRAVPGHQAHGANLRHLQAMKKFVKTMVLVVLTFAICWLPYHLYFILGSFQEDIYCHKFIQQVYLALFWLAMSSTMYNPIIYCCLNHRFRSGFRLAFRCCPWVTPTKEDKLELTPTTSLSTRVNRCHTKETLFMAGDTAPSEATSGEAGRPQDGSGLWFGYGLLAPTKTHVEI
Description: Antagonistic activity determined by intracellular calcium concentration (FLIPR) using Neurokinin A and hNK2 receptor-expressing CHO cell. It is filed as cell-based. To be noted: test compound 1 μM; increase in intracellular calcium due to Neurokinin A, hNK2 receptor-expressing CHO cells. The procedure: hNK2 receptor-expressing CHO cells were seeded on a 96 well plate at 3×10^4 cell/well and cultured for 24 hrs. Then the medium was aspirated and 20 mM HEPES (pH 7.4)—HBSS buffer (50 μL) was added. Thereto was added prepared 1× Reagent buffer (50 μL, FLIPR Calcium Assay Kit: Molecular Devices Corporation, Japan) and the mixture was reacted at 37° C. for 1 hr. A test compound diluted with 20 mM HEPES (pH 7.4)—HBSS buffer (50 μL, containing 0.4% dimethyl sulfoxide) was added to examine antagonistic activity of the test compound. Thereafter, 20 nM Neurokinin A solution (50 μL) was added, and change in the intracellular calcium concentration were measured by FLIPR (Molecular Devices Corporation, Japan).
For orientation: A change in cytosolic calcium serves as a functional read-out for many receptors and channels.
For the compound `O=C(N[C@@H]1CCCC[C@@H]1C(=O)N1CC[C@@H]2[C@H](c3ccccc3)Nc3ccccc3[C@@H]21)c1ccccc1` [Compound of Example 1], the “Assay of Antagonistic activity Inhibitory rate (%)” value is recorded as 45%.

Staying with this test, now noted: test compound 10 μM; increase in intracellular calcium due to Neurokinin A, hNK2 receptor-expressing CHO cells.
For the compound `O=C(N[C@@H]1CCCC[C@@H]1C(=O)N1CC[C@@H]2[C@H](c3ccccc3)Nc3ccccc3[C@@H]21)c1ccccc1` [Compound of Example 1], the “Assay of Antagonistic activity Inhibitory rate (%)” value turned out to be 97%.

In the next test the target is T1, hNK2 receptor. Description: Radio-ligand ([125I]-NKA) receptor binding inhibitory activity using membrane fraction of hNK2 receptor-expressing CHO cell. The following applies: membrane fraction of hNK2 receptor-expressing CHO cells, 25° C., 30 min. The essentials: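 Membranes from hNK2-expressing CHO cells (20 μg/mL suspension) incubated with test compound and [125I]-NKA ([…] solution as added) in Tris-HCl pH 7.4 with BSA, protease inhibitors, 3 mM MnCl2, 25 °C, 30 min. Bound radioactivity by GF/C filtration and scintillation; inhibition expressed relative to specific binding (total minus unlabeled-NKA non-specific).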
Usually pIC50 stands for the negative decadic logarithm of the IC50, by convention in mol/L. Low values mean a high IC50, high ones a low IC50. For the compound `CCCCNC(=O)N[C@@H]1CCCC[C@@H]1C(=O)N1CC[C@@H]2[C@H](c3ncc[nH]3)Nc3ccccc3[C@@H]21` [Example 299, N-Butyl-N′-((1R,2S)-2-{[(3aR,4R,9bR)-4-(1H-imidazol-2-yl)-2,3,3a,4,5,9b-hexahydro-1H-pyrrolo[3,2-c]quinolin-1-yl]carbonyl}cyclohexyl)urea], the pIC50 was more than 9.00.
Still for that read-out and setting: the figure for `COC[C@@H]1Nc2ccccc2[C@H]2[C@@H]1CCN2C(=O)[C@H]1CCCC[C@H]1NC(=O)c1ccc(OC(F)(F)F)cc1` [Example 215, N-((1R,2S)-2-{[(3aR,4R,9bR)-4-(Methoxymethyl)-2,3,3a,4,5,9b-hexahydro-1H-pyrrolo[3,2-c]quinolin-1-yl]carbonyl}cyclohexyl)-4-(trifluoromethoxy)benzamide] is more than 9.00; for `CCCCCCNC(=O)N[C@@H]1CCCC[C@@H]1C(=O)N1CC[C@@H]2[C@H](c3ccccc3)Nc3ccccc3[C@@H]21` [Example 154, N-Hexyl-N′-((1R,2S)-2-{[(3aR,4R,9bR)-4-phenyl-2,3,3a,4,5,9b-hexahydro-1H-pyrrolo[3,2-c]quinolin-1-yl]carbonyl}cyclohexyl)urea] it is more than 9.00.
Still for that read-out and setting: the figure for `CC(=O)N1CCC(NC(=O)N[C@@H]2CCCC[C@@H]2C(=O)N2CC[C@@H]3[C@H](c4ccccc4)Nc4ccccc4[C@@H]32)CC1` [Example 175, N-(1-Acetylpiperidin-4-yl)-N′-((1R,2S)-2-{[(3aR,4R,9bR)-4-phenyl-2,3,3a,4,5,9b-hexahydro-1H-pyrrolo[3,2-c]quinolin-1-yl]carbonyl}cyclohexyl)urea] is more than 8.00; for `O=C(N[C@@H]1CCCC[C@@H]1C(=O)N1CC[C@@H]2[C@H](c3ccoc3)Nc3ccccc3[C@@H]21)c1ccccc1` (relative stereo) [Example 16, N-((1R,2S)-2-{[(3aR*,4R*,9bR*)-4-(3-Furyl)-2,3,3a,4,5,9b-hexahydro-1H-pyrrolo[3,2-c]quinolin-1-yl]carbonyl}cyclohexyl)benzamide] it is more than 9.00.
In turn, `COc1ccc(NC(=O)N[C@@H]2CCCC[C@@H]2C(=O)N2CC[C@@H]3[C@H](C4CC4)Nc4ccccc4[C@@H]32)cc1` [Example 184, N-((1R,2S)-2-{[(3aR,4S,9bR)-4-Cyclopropyl-2,3,3a,4,5,9b-hexahydro-1H-pyrrolo[3,2-c]quinolin-1-yl]carbonyl}cyclohexyl)-N′-(4-methoxyphenyl)urea] showed a pIC50 of more than 9.00.
Same read-out and setting: the figure for `O=C(N[C@@H]1CCCC[C@@H]1C(=O)N1CC[C@@H]2[C@H](c3nccs3)Nc3ccccc3[C@@H]21)c1ccccc1` (relative stereo) [Example 25, N-((1R,2S)-2-{[(3aR*,4R*,9bR*)-4-(1,3-Thiazol-2-yl)-2,3,3a,4,5,9b-hexahydro-1H-pyrrolo[3,2-c]quinolin-1-yl]carbonyl}cyclohexyl)benzamide] is more than 8.00; for `O=C(N[C@@H]1CCCC[C@@H]1C(=O)N1CC[C@@H]2[C@H](c3ncc[nH]3)Nc3ccccc3[C@@H]21)c1ccc2[nH]nnc2c1` [Example 310, N-((1R,2S)-2-{[(3aR,4R,9bR)-4-(1H-Imidazol-2-yl)-2,3,3a,4,5,9b-hexahydro-1H-pyrrolo[3,2-c]quinolin-1-yl]carbonyl}cyclohexyl)-1H-1,2,3-benzotriazole-5-carboxamide] it is more than 9.00.
Same read-out and setting: the figure for `O=C(N[C@@H]1CCCC[C@@H]1C(=O)N1CC[C@@H]2[C@H](c3cccnc3)Nc3ccccc3[C@@H]21)c1ccccc1` (relative stereo) [Example 20, N-((1R,2S)-2-{[(3aR*,4R*,9bR*)-4-Pyridin-3-yl-2,3,3a,4,5,9b-hexahydro-1H-pyrrolo[3,2-c]quinolin-1-yl]carbonyl}cyclohexyl)benzamide] is more than 8.00; for `COC[C@@H]1Nc2ccccc2[C@H]2[C@@H]1CCN2C(=O)[C@H]1CCCC[C@H]1NC(=O)c1ccc2ncsc2c1` [Example 253, N-((1R,2S)-2-{[(3aR,4R,9bR)-4-(Methoxymethyl)-2,3,3a,4,5,9b-hexahydro-1H-pyrrolo[3,2-c]quinolin-1-yl]carbonyl}cyclohexyl)-1,3-benzothiazole-6-carboxamide] it is more than 8.00.
In turn, `CCNC(=O)N[C@@H]1CCCC[C@@H]1C(=O)N1CC[C@@H]2[C@H](c3ccsc3)Nc3ccccc3[C@@H]21` [Example 187, N-Ethyl-N′-((1R,2S)-2-{[(3aR,4R,9bR)-4-(3-thienyl)-2,3,3a,4,5,9b-hexahydro-1H-pyrrolo[3,2-c]quinolin-1-yl]carbonyl}cyclohexyl)urea] gave a pIC50 of more than 9.00.
Regarding `O=C(/C=C/c1ccccc1)N[C@@H]1CCCC[C@@H]1C(=O)N1CC[C@@H]2[C@H](c3ccccc3)Nc3ccccc3[C@@H]21` [Example 101, (2E)-3-Phenyl-N-((1R,2S)-2-{[(3aR,4R,9bR)-4-phenyl-2,3,3a,4,5,9b-hexahydro-1H-pyrrolo[3,2-c]quinolin-1-yl]carbonyl}cyclohexyl)acrylamide], the pIC50 is more than 9.00.
For the compound `COC[C@@H]1Nc2ccccc2[C@H]2[C@@H]1CCN2C(=O)[C@H]1CCCC[C@H]1NC(=O)Nc1ccc(F)cc1` [Example 205, N-(4-Fluorophenyl)-N′-((1R,2S)-2-{[(3aR,4R,9bR)-4-(methoxymethyl)-2,3,3a,4,5,9b-hexahydro-1H-pyrrolo[3,2-c]quinolin-1-yl]carbonyl}cyclohexyl)urea], the pIC50 is more than 9.00.
Same read-out and setting: the result for `N#Cc1ccc(C(=O)N[C@@H]2CCCC[C@@H]2C(=O)N2CC[C@@H]3[C@H](c4ncc[nH]4)Nc4ccccc4[C@@H]32)cc1` [Example 304, 4-cyano-N-((1R,2S)-2-{[(3aR,4R,9bR)-4-(1H-imidazol-2-yl)-2,3,3a,4,5,9b-hexahydro-1H-pyrrolo[3,2-c]quinolin-1-yl]carbonyl}cyclohexyl)benzamide] reads more than 9.00.
Same read-out and setting: the figure for `COC[C@@H]1Nc2ccccc2[C@H]2[C@@H]1CCN2C(=O)[C@H]1CCCC[C@H]1NC(=O)c1ccc(NCCO)cc1` [Example 266, 4-[(2-Hydroxyethyl)amino]-N-((1R,2S)-2-{[(3aR,4R,9bR)-4-(methoxymethyl)-2,3,3a,4,5,9b-hexahydro-1H-pyrrolo[3,2-c]quinolin-1-yl]carbonyl}cyclohexyl)benzamide] is more than 8.00; for `CCC(=O)N[C@@H]1CCCC[C@@H]1C(=O)N1CC[C@@H]2[C@H](c3ccccc3)Nc3ccccc3[C@@H]21` [Example 86, N-((1R,2S)-2-{[(3aR,4R,9bR)-4-Phenyl-2,3,3a,4,5,9b-hexahydro-1H-pyrrolo[3,2-c]quinolin-1-yl]carbonyl}cyclohexyl)propanamide] it is more than 8.00; for `COCCN(C)c1ccc(C(=O)N[C@@H]2CCCC[C@@H]2C(=O)N2CC[C@@H]3[C@H](COC)Nc4ccccc4[C@@H]32)cc1` [Example 273, 4-[(2-Methoxyethyl)(methyl)amino]-N-((1R,2S)-2-{[(3aR,4R,9bR)-4-(methoxymethyl)-2,3,3a,4,5,9b-hexahydro-1H-pyrrolo[3,2-c]quinolin-1-yl]carbonyl}cyclohexyl)benzamide] it is more than 9.00.
`O=C(Nc1ccc(F)cc1)N[C@@H]1CCCC[C@@H]1C(=O)N1CC[C@@H]2[C@H](c3ccccc3)Nc3ccccc3[C@@H]21` [Example 139, N-(4-Fluorophenyl)-N′-((1R,2S)-2-{[(3aR,4R,9bR)-4-phenyl-2,3,3a,4,5,9b-hexahydro-1H-pyrrolo[3,2-c]quinolin-1-yl]carbonyl}cyclohexyl)urea] had a pIC50 of more than 9.00.
The compound `COC[C@@H]1Nc2ccccc2[C@H]2[C@@H]1CCN2C(=O)[C@H]1CCCC[C@H]1NC(=O)c1ccc(C(F)(F)F)cc1` [Example 210, N-((1R,2S)-2-{[(3aR,4R,9bR)-4-(Methoxymethyl)-2,3,3a,4,5,9b-hexahydro-1H-pyrrolo[3,2-c]quinolin-1-yl]carbonyl}cyclohexyl)-4-(trifluoromethyl)benzamide] had a pIC50 of more than 9.00.
